# Laboratory results: publication PMC6028563, “Probing Substituents in the 1- and 3-Position: Tetrahydropyrazino-Annelated Water-Soluble Xanthine Derivatives as Multi-Target Drugs With Potent Adenosine Receptor Antagonistic Activity” (Frontiers in Chemistry, 2018)
# Like-named read-outs stand apart in the source and are kept apart here.
# What was measured:
# human A2A AR = target: T1, human A2A AR (Homo sapiens, UniProt P29274); test: Radioligand binding assay at human A2A AR vs. [^3H]MSX-2; details: CHO cell membranes, n = 3, read-out: Ki ± SEM, A2A vs. [^3H]MSX-2
# T1 construct: expressed in transfected cells; host or cells: CHO cells
# T1 sequence (P29274 whole entry): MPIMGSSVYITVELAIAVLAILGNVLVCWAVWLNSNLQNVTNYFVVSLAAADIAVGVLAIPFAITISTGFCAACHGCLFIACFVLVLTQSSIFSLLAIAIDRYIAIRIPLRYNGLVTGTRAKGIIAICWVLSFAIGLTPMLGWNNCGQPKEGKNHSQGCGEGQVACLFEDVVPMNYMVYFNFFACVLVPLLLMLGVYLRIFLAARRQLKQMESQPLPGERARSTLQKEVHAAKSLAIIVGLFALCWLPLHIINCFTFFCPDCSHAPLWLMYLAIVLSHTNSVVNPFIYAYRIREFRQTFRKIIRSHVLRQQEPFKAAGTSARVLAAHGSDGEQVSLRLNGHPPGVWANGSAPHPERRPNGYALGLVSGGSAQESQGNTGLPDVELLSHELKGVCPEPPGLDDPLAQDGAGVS
# How it was run: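 Rat A1 affinity was measured on cortical membranes and rat A2A on striatal membranes from rat brain. Human A1, A2A, A2B and A3 subtypes were tested on membranes of CHO cells recombinantly expressing each receptor. No functional assays were run, as these xanthine-type compounds act only as blockers.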
# recombinant human MAO-B = target: T2, recombinant human MAO-B (Homo sapiens, UniProt P27338); test: Monoamine oxidase assay (Amplex Red), MAO-B; type: biochemical; details: for inhibition at 10 µM: at 10,000 nM (10 μM), read-out: % inhibition at indicated concentration, Human MAO-B; for IC50: n = 3, read-out: IC50 ± SEM, Human MAO-B
# T2 construct: purchased Sigma-Aldrich M7441; host or cells: baculovirus-infected insect cells
# T2 sequence (P27338 1-520): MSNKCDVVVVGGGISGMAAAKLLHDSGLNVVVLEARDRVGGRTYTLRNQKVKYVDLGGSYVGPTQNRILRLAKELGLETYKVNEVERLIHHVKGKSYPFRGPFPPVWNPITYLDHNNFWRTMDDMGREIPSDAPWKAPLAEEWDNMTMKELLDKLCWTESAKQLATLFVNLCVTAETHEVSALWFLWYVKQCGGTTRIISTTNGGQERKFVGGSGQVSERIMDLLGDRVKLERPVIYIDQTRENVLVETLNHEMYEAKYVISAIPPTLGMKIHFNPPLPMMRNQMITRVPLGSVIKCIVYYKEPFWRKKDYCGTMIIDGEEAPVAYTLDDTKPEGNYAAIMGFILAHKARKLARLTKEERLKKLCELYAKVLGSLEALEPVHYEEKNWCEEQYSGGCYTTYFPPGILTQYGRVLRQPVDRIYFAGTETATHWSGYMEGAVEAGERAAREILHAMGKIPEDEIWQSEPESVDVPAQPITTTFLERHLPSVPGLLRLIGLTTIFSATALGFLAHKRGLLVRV
# How it was run: (§1)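 Recombinant human MAO-A and MAO-B, expressed in baculovirus-infected insect cells, were assayed by Amplex Red fluorometric detection. Rat MAO-B inhibition used mitochondria-enriched fractions from male Sprague Dawley rat liver.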
# [1] = Thermodynamic solubility measurements; type: physicochemical; details: thermodynamic from solid
# Excerpt: This is expected to facilitate dissolution in the stomach. Depending on the substitution pattern they may also be well soluble at higher pH values (Brunschweiger et al., [2014]). In the present study we measured thermodynamic solubility of only very few compounds exemplarily (14a-e, 14g, 15f,g) and confirmed their high solubility at pH 1 (see Table S1 in Supplementary Material). Most of these compounds were still soluble at pH 7.4. The best soluble derivative was the 3-ethyl-1-methyl-8-m-fluorobenzyl derivative 14g with solubilities of >1.5 g/L (4.2 mM) at pH 1, 50 mg/L (0.14 mM) at pH 4, and 40 mg/L ([…]) at pH 7.4.
# Table S1. Solubility of selected compounds at three different pH values (in mg/mL).a
# Compound pH 1 pH 4 pH 7.4
# adetermined by thermodynamic solubility measurements.
# recombinant human MAO-A = target: T3, recombinant human MAO-A (Homo sapiens, UniProt P21397); test: Monoamine oxidase assay (Amplex Red), MAO-A; type: biochemical; details: for inhibition at 10 µM: at 10,000 nM, read-out: % inhibition at indicated concentration, Human MAO-A; for IC50: n = 3, read-out: IC50 ± SEM, Human MAO-A
# T3 construct: purchased Sigma-Aldrich M7316; host or cells: baculovirus-infected insect cells
# T3 sequence (P21397 1-527): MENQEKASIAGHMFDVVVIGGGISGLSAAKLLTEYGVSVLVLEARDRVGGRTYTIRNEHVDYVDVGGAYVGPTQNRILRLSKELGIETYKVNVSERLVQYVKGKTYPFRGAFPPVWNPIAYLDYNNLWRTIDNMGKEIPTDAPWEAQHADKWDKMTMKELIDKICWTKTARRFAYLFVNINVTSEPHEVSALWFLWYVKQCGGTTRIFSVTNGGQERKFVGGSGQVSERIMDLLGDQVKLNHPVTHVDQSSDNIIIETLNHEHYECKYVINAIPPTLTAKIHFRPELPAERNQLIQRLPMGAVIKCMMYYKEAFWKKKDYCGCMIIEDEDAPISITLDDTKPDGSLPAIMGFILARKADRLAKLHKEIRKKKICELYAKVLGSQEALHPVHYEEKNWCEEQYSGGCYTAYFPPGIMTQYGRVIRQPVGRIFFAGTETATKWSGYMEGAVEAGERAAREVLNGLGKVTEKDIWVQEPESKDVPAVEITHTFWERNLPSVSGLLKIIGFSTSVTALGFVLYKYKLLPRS
# How it was run: as §1
# [2] = aqueous buffer, pH 4, thermodynamic solubility, read-out: Solubility, pH 4
# [3] = aqueous buffer, pH 7.4, thermodynamic solubility, read-out: Solubility, pH 7.4
# [4] = simulated gastric fluid, pH 1, thermodynamic solubility, read-out: Solubility, pH 1
SMILES,Ki (human A2A AR),inhibition at 10 µM (recombinant human MAO-B),IC50 (recombinant human MAO-B),"solubility [1, 2]","solubility [1, 3]","solubility [1, 4]",inhibition at 10 µM (recombinant human MAO-A),IC50 (recombinant human MAO-A),"solubility ([1]; aqueous solution, aqueous buffer, pH 4, molar value in brackets, read-out: solubility at pH 4)","solubility ([1]; aqueous solution, aqueous buffer, pH 4, read-out: solubility at pH 4)","solubility ([1]; aqueous solution, aqueous buffer, pH 7.4, molar value in brackets, read-out: solubility at pH 7.4)","solubility ([1]; aqueous solution, aqueous buffer, pH 7.4, read-out: solubility at pH 7.4)","solubility ([1]; aqueous solution, simulated gastric fluid, pH 1, molar value in brackets, read-out: solubility at pH 1)","solubility ([1]; aqueous solution, simulated gastric fluid, pH 1, read-out: solubility at pH 1)"
"CCn1c(=O)c2c(nc3n2CCN(Cc2ccccc2Br)C3)n(C)c1=O [Compound 14a, 8-(2-bromobenzyl)-3-ethyl-1-methyl-6,7,8,9-tetrahydropyrazino[2,1-f]purine-2,4(1H,3H)-dione]",497 ± 62 nM,37%,> 10000 nM,0.9 µg/mL,0.8 µg/mL,200 µg/mL,,,,,,,,
"CCn1c(=O)c2c(nc3n2CCN(Cc2cccc(Br)c2)C3)n(C)c1=O [Compound 14b, 8-(3-bromobenzyl)-3-ethyl-1-methyl-6,7,8,9-tetrahydropyrazino[2,1-f]purine-2,4(1H,3H)-dione]",,34%,> 10000 nM,1 µg/mL,0.9 µg/mL,100 µg/mL,,,,,,,,
"CCn1c(=O)c2c(nc3n2CCN(Cc2ccc(Br)cc2)C3)n(C)c1=O [Compound 14c, 8-(4-bromobenzyl)-3-ethyl-1-methyl-6,7,8,9-tetrahydropyrazino[2,1-f]purine-2,4(1H,3H)-dione]",,,1630 nM,6 µg/mL,3 µg/mL,1300 µg/mL,2%,> 10000 nM,,,,,,
"CCn1c(=O)c2c(nc3n2CCN(Cc2ccccc2C(F)(F)F)C3)n(C)c1=O [Compound 14d, 3-ethyl-1-methyl-8-(2-(trifluoromethyl)benzyl)-6,7,8,9-tetrahydropyrazino[2,1-f]purine-2,4(1H,3H)-dione]",,49%,≥ 10000 nM,1 µg/mL,< 0.5 µg/mL,200 µg/mL,5%,> 10000 nM,,,,,,
"CCn1c(=O)c2c(nc3n2CCN(Cc2cccc(C(F)(F)F)c2)C3)n(C)c1=O [Compound 14e, 3-ethyl-1-methyl-8-(3-(trifluoromethyl)benzyl)-6,7,8,9-tetrahydropyrazino[2,1-f]purine-2,4(1H,3H)-dione]",1780 nM,> 50%,< 10000 nM,2 µg/mL,2 µg/mL,400 µg/mL,12%,> 10000 nM,,,,,,
"CCn1c(=O)c2c(nc3n2CCN(Cc2cccc(F)c2)C3)n(C)c1=O [Compound 14g, 3-ethyl-8-(3-fluorobenzyl)-1-methyl-6,7,8,9-tetrahydropyrazino[2,1-f]purine-2,4(1H,3H)-dione]",,48%,≥ 10000 nM,,,,,,140 µM,50 µg/mL,84 µM,40 µg/mL,> 4200 µM,> 1500 µg/mL
"CCn1c(=O)c2c(nc3n2CCN(Cc2cccc(C(F)(F)F)c2)C3)n(CC)c1=O [Compound 15g, 1,3-diethyl-8-(3-(trifluoromethyl)benzyl)-6,7,8,9-tetrahydropyrazino[2,1-f]purine-2,4(1H,3H)-dione]",277 ± 59 nM,10%,> 10000 nM,2 µg/mL,2 µg/mL,600 µg/mL,,,,,,,,
"CCn1c(=O)n(C)c(=O)c2c1nc1n2CCN(Cc2ccc(Cl)c(Cl)c2)C1 [Compound 16a, 8-(3,4-dichlorobenzyl)-1-ethyl-3-methyl-6,7,8,9-tetrahydropyrazino[2,1-f]purine-2,4(1H,3H)-dione]",1620 nM,,106 ± 10 nM,,,,6%,> 10000 nM,,,,,,
"CCn1c(=O)n(C)c(=O)c2c1nc1n2CCN(Cc2cc(Cl)cc(Cl)c2)C1 [Compound 16b, 8-(3,5-dichlorobenzyl)-1-ethyl-3-methyl-6,7,8,9-tetrahydropyrazino[2,1-f]purine-2,4(1H,3H)-dione]",2230 nM,,136 ± 5 nM,,,,8%,> 10000 nM,,,,,,
"C#CCn1c(=O)c2c(nc3n2CCN(Cc2ccc(Cl)c(Cl)c2)C3)n(C)c1=O [Compound 19a, 8-(3,4-dichlorobenzyl)-1-methyl-3-propargyl-6,7,8,9-tetrahydropyrazino[2,1-f]purine-2,4(1H,3H)-dione]",1580 nM,,679 ± 17 nM,,,,12%,> 10000 nM,,,,,,
"C#CCn1c(=O)c2c(nc3n2CCN(Cc2cc(C(F)(F)F)ccc2Cl)C3)n(C)c1=O [Compound 19b, 8-(2-chloro-5-(trifluoromethyl)benzyl)-1-methyl-3-propargyl-6,7,8,9-tetrahydropyrazino[2,1-f]purine-2,4(1H,3H)-dione]",712 ± 129 nM,59%,< 10000 nM,,,,5%,> 10000 nM,,,,,,
"C#CCn1c(=O)c2c(nc3n2CCN(c2cccc(OC)c2)C3)n(CC)c1=O [Compound 20c, 1-ethyl-8-(3-methoxyphenyl)-3-propargyl-6,7,8,9-tetrahydropyrazino[2,1-f]purine-2,4(1H,3H)-dione]",289 ± 85 nM,> 50%,≤ 10000 nM,,,,6%,> 10000 nM,,,,,,
